According to ChEMBL document CHEMBL4823252 (J Med Chem, 2021):

What was measured:
[1] = Chemical stability of compound incubated for 90 days by HPLC analysis; assay type: physicochemical; conditions: time 90 day; read-out: Stabilty
[2] = test system: MV4-11; assay: Antiproliferative activity against human MV4-11 cells incubated for 72 hrs by Cell Counting Kit-8 assay; assay type: functional, cell-based; conditions: MV4-11, 72 h
[3] = test system: MOLM-13; assay: Antiproliferative activity against human MOLM-13 cells incubated for 72 hrs by Cell Counting Kit-8 assay; assay type: functional, cell-based; conditions: MOLM-13, 72 h
[4] = biological target: T1, Receptor-type tyrosine-protein kinase FLT3 (Homo sapiens, UniProt P36888); assay: Inhibition of FLT3 (unknown origin) incubated for 30 mins in presence of ATP by mobility shift assay
T1 sequence (P36888 whole entry): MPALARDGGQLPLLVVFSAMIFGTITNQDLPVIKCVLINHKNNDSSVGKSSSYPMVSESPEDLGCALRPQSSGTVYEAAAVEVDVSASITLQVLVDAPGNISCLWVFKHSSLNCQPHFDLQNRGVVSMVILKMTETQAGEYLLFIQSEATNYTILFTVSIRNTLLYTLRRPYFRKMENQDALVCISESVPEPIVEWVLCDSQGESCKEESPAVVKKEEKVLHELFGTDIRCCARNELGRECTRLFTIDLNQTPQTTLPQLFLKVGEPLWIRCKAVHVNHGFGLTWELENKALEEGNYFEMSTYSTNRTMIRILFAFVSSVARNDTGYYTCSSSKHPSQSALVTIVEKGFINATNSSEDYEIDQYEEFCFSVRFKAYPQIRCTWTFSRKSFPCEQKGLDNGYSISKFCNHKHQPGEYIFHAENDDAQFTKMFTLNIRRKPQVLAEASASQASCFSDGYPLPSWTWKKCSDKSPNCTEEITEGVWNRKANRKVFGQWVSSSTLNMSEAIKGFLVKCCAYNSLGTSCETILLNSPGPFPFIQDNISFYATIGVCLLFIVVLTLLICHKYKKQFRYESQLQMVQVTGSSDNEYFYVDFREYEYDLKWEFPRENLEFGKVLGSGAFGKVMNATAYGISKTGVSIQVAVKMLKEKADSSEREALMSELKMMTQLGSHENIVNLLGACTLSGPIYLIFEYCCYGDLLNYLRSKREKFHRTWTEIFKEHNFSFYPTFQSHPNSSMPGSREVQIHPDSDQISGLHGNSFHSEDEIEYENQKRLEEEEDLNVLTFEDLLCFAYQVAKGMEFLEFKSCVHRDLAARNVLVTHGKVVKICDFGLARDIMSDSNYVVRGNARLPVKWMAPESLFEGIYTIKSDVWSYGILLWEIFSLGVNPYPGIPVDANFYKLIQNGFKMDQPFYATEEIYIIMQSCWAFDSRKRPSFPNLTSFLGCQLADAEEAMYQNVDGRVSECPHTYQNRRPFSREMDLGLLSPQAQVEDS

[5] = test system: MOLM-13; assay: Antiproliferative activity against human sunitinib-resistant MOLM-13 cells at 1000 nM incubated for 72 hrs by CCK8 assay relative to control; assay type: functional
[6] = test system: MOLM-13; assay: Antiproliferative activity against human sunitinib-resistant MOLM-13 cells at 111 nM incubated for 72 hrs by CCK8 assay relative to control; assay type: functional
[7] = test system: MOLM-13; assay: Antiproliferative activity against human sunitinib-resistant MOLM-13 cells at 37 nM incubated for 72 hrs by CCK8 assay relative to control; assay type: functional
[8] = test system: MOLM-13; assay: Antiproliferative activity against human sunitinib-resistant MOLM-13 cells at 12 nM incubated for 72 hrs by CCK8 assay relative to control; assay type: functional
[9] = test system: MOLM-13; assay: Antiproliferative activity against human sunitinib-resistant MOLM-13 cells at 4 nM incubated for 72 hrs by CCK8 assay relative to control; assay type: functional
[10] = test system: MOLM-13; assay: Antiproliferative activity against human sunitinib-resistant MOLM-13 cells at 1 nM incubated for 72 hrs by CCK8 assay relative to control; assay type: functional
[11] = test system: MOLM-13; assay: Antiproliferative activity against human quizartinib-resistant MOLM-13 cells at 1000 nM incubated for 72 hrs by CCK8 assay relative to control; assay type: functional
[12] = test system: MOLM-13; assay: Antiproliferative activity against human quizartinib-resistant MOLM-13 cells at 333 nM incubated for 72 hrs by CCK8 assay relative to control; assay type: functional
[13] = test system: MOLM-13; assay: Antiproliferative activity against human quizartinib-resistant MOLM-13 cells at 111 nM incubated for 72 hrs by CCK8 assay relative to control; assay type: functional
[14] = test system: MOLM-13; assay: Antiproliferative activity against human quizartinib-resistant MOLM-13 cells at 37 nM incubated for 72 hrs by CCK8 assay relative to control; assay type: functional
[15] = test system: MOLM-13; assay: Antiproliferative activity against human quizartinib-resistant MOLM-13 cells at 12 nM incubated for 72 hrs by CCK8 assay relative to control; assay type: functional
[16] = test system: MOLM-13; assay: Antiproliferative activity against human quizartinib-resistant MOLM-13 cells at 4 nM incubated for 72 hrs by CCK8 assay relative to control; assay type: functional
[17] = test system: MOLM-13; assay: Antiproliferative activity against human quizartinib-resistant MOLM-13 cells at 1 nM incubated for 72 hrs by CCK8 assay relative to control; assay type: functional
[18] = test system: MOLM-13; assay: Antiproliferative activity against human sunitinib-resistant MOLM-13 cells at 333 nM incubated for 72 hrs by CCK8 assay relative to control; assay type: functional

SMILES | IC50 [2] [nM] | IC50 [3] [nM] | IC50 [4] [nM] | further results
Cc1c(NC(=O)[C@@H]2CCCN2)c[nH]c1/C=C1\C(=O)Nc2ccc(F)cc21 | 37.2 | 35.9 | 2.5 | remaining at 2160 h [1]: 99.1%
Cc1c(NC(=O)CN(C)C)c[nH]c1/C=C1\C(=O)Nc2ccc(F)cc21 | 78.6 | 36 | 2 | –
Cc1c(NC(=O)CCN2CCN(C)CC2)c[nH]c1/C=C1\C(=O)Nc2ccc(F)cc21 | 41.3 | 47.5 | 3 | –
Cc1c(NC(=O)C2CCNCC2)c[nH]c1/C=C1\C(=O)Nc2ccc(F)cc21 | 177 | 143 | – | –
Cc1c(NC(=O)CN2CCCCC2)c[nH]c1/C=C1\C(=O)Nc2ccc(F)cc21 | 252 | > 1000 | – | –
Cc1[nH]c(/C=C2\C(=O)Nc3ccc(F)cc32)c(C)c1NC(=O)[C@@H]1CCCN1 | 40.9 | – | – | remaining at 2160 h [1]: 80.8%
Cc1c(NC(=O)CC2CCCN2)c[nH]c1/C=C1\C(=O)Nc2ccc(F)cc21 (stereo unspecified) | 50 | 35.9 | 2.7 | –
CCNCCC(=O)Nc1c[nH]c(/C=C2\C(=O)Nc3ccc(F)cc32)c1C | 34.5 | 51.2 | 2.5 | –
Cc1c(NC(=O)CCN(C)C)c[nH]c1/C=C1\C(=O)Nc2ccc(F)cc21 | 32.4 | 57 | 1.7 | –
Cc1c(/C=C2\C(=O)Nc3ccc(F)cc32)[nH]c(Cl)c1NC(=O)[C@@H]1CCCN1 | 50.7 | – | – | remaining at 2160 h [1]: 95.4%
Cc1c(NC(=O)C2CCCCN2)c[nH]c1/C=C1\C(=O)Nc2ccc(F)cc21 (stereo unspecified) | 54.4 | 59.2 | 2.4 | –
Cc1c(NC(=O)[C@H]2CCCN2)c[nH]c1/C=C1\C(=O)Nc2ccc(F)cc21 | 69.9 | 70.8 | – | –
Cc1c(/C=C2\C(=O)Nc3ccc(F)cc32)[nH]c(Br)c1NC(=O)[C@@H]1CCCN1 | 61.5 | – | – | remaining at 2160 h [1]: 96.6%
Cc1c(NC(=O)CN2CCCC2)c[nH]c1/C=C1\C(=O)Nc2ccc(F)cc21 | 77 | 61.9 | 1.4 | –
Cc1c(NC(=O)CCNC2CCCC2)c[nH]c1/C=C1\C(=O)Nc2ccc(F)cc21 | 29.2 | 44.3 | 0.6 | –
CCN(CC)CCC(=O)Nc1c[nH]c(/C=C2\C(=O)Nc3ccc(F)cc32)c1C | 30.3 | 54.3 | 2 | –
CC(C)(C)c1cc(NC(=O)Nc2ccc(-c3cn4c(n3)sc3cc(OCCN5CCOCC5)ccc34)cc2)no1 [QUIZARTINIB] | – | – | – | Activity [5]: 10.9%; Activity [6]: -1.5%; Activity [7]: 0.2%; Activity [8]: 2.8%; Activity [9]: -0.9%; Activity [10]: 1.4%; Activity [11]: 1.3%; Activity [12]: -4.1%; Activity [13]: -5.8%; Activity [14]: -0.8%; Activity [15]: 2.9%; Activity [16]: -0.4%; Activity [17]: 5.2%; Activity [18]: 5.7%
Cc1c(NC(=O)CCNC(C)(C)C)c[nH]c1/C=C1\C(=O)Nc2ccc(F)cc21 | 44.8 | 58.2 | 1.8 | –
Cc1c(NC(=O)CCN2CCOCC2)c[nH]c1/C=C1\C(=O)Nc2ccc(F)cc21 | 133 | 173 | – | –
Cc1c(NC(=O)CNC2CCCC2)c[nH]c1/C=C1\C(=O)Nc2ccc(F)cc21 | 125 | 158 | – | –
Cc1c(NC(=O)CN2CCN(C)CC2)c[nH]c1/C=C1\C(=O)Nc2ccc(F)cc21 | 51.8 | 48.4 | 2.7 | –
CCCNCCC(=O)Nc1c[nH]c(/C=C2\C(=O)Nc3ccc(F)cc32)c1C | 34.7 | 57.4 | 1.7 | –
Cc1c(NC(=O)CCN2CCCCC2)c[nH]c1/C=C1\C(=O)Nc2ccc(F)cc21 | 44.2 | 64.2 | 1.3 | –
CCN(CC)CC(=O)Nc1c[nH]c(/C=C2\C(=O)Nc3ccc(F)cc32)c1C | 81.7 | 176 | – | –
COc1ccc2c(c1)/C(=C/c1[nH]cc(NC(=O)CCN3CCCC3)c1C)C(=O)N2 | 28.9 | 55.7 | – | –
Cc1c(NC(=O)CCN2CCCC2)c[nH]c1/C=C1\C(=O)Nc2ccc(Br)cc21 | 58.6 | 71.5 | – | –
Cc1c(NC(=O)CCN2CCCC2)c[nH]c1/C=C1\C(=O)Nc2ccc(Cl)cc21 | 20.9 | 64.5 | – | –
